pIC50: −log10 of the molar value.
Biological target: T1, Dimer of Gag-Pol polyprotein [489-587] (Human immunodeficiency virus 1, UniProt P12497)
T1 construct: 489-587
Experiment: Protease Inhibition Assay
Conditions: pH 6; 37 °C
Procedure: IC50 values were obtained by assaying the enzyme against the synthetic substrate peptide […], which was tritiated at the proline residue, and then was coupled via its N-terminal lysine to an Affi-gel bead mixture. The assay was performed in 96-well microtiter filtration plates. The plates containing HIV protease and radiolabeled substrate beads were incubated with or without inhibitor. […] IC50 determinations were performed in duplicate at each concentration with mean values used for data analysis.

Row | SMILES | pIC50
1 | CC1(C)S[C@H]([C@H](NC(=O)Cc2ccccc2)C(N)=O)N[C@H]1C(=O)NCCNC(=O)[C@@H]1N[C@@H]([C@H](NC(=O)Cc2ccccc2)C(N)=O)SC1(C)C | 8.52
2 | CCNC(=O)[C@@H](NC(=O)Cc1ccccc1)[C@@H]1N[C@@H](C(=O)NCCNC(=O)[C@@H]2N[C@@H]([C@H](NC(=O)Cc3ccccc3)C(=O)NCC)SC2(C)C)C(C)(C)S1 | 8.32
3 | COC(=O)[C@@H](NC(=O)Cc1ccccc1)[C@@H]1N[C@@H](C(=O)NCCNC(=O)[C@@H]2N[C@@H]([C@H](NC(=O)Cc3ccccc3)C(=O)OC)SC2(C)C)C(C)(C)S1 [[2R-[2a(R*),4B ] ]-4,4-[1,2-Ethanediylbis[aminocarbonyl] ]-bis[5,5-dimethyl-a-[ (phenylacetyl)amino]-2-thiazolidineacetic acid, methyl ester]] | 7.22

Reference: BindingDB's records for doi:10.1021/jm00073a011 (Glaxo Group Research, 1993)
